From US20240108602A1, “TREATMENT OF MENTAL DISORDERS” (GH Research Ireland Limited, priority 2022, published 2024)
Read-outs that look alike come from different tables or passages of the source.

Tests used:
[1] = tested on: human hepatocytes; assay: Metabolite identification after incubation of 5-MeO-DMT with human hepatocytes; conditions: 5-MeO-DMT free base 10 μM, up to 120 minutes
Protocol: For incubations with cryopreserved hepatocytes, the 2 mM stock solution was diluted with Leibovitz L-15 medium to a concentration of 20 μM or 2 μM. An aliquot (250 μL) of the 20 μM and 2 μM test substance formulations was added to each hepatocyte incubation sample (250 μL), as appropriate, so that the final test substance concentration in the incubations was 10 μM or 1 μM, respectively, and incubations contained less than 1% (v/v) solvent.
Incubations were performed at ca. 37° C. in a shaking water bath (total incubation volume 0.5 mL). For 1 μM, incubations were terminated after 0, 5, 10, 20, 30, 60 and 120 minutes, by the addition of ice-cold acetonitrile (0.5 mL).
The samples were vortex mixed and centrifuged at ca 13,000 rpm for 10 minutes at room temperature. Following centrifugation, the protein-free supernatants were removed for analysis.
Blank control incubations were carried out with Leibovitz L-15 medium in place of the test substance. No cells control samples were performed with Leibovitz L-15 medium in place of hepatocytes. Aliquots of the blank control samples were taken at 120 minutes, while no cells control samples were taken at 0, 30 and 120 for 1 μM incubations and at 0 and 120 minutes for 10 μM incubations.
All 1 μM incubations were performed in duplicate, while all 10 μM incubations were performed in singlet. All samples were stored at −80° C. (nominal) prior to analysis.
Prior to sample analysis a 100 μL aliquot of each sample was evaporated to near dryness under a steady stream of nitrogen at room temperature, and subsequently reconstituted in 50 μL of mobile phase A (0.1% formic acid in water). Each sample (0, 30 and 120-minute, 10 μM) was analysed using accurate mass LC-MS to determine relative levels of parent compound at each time-point, and determine the profile of metabolites formed. Appropriate blank and control samples were also analysed. The 10 and 60-minute, 10 μM incubation samples were not analysed and were stored at −80° C. (nominal).
Data were interrogated for the presence of metabolites by comparison of retention times with the test substance reference standard and based on the accurate masses of potential metabolites using screening software (UNIFI version 1.9.4), and user defined search parameters. To confirm a suspected metabolite, the measured accurate mass of the peak detected in the sample used for structural elucidation had to be within 5 ppm of the theoretical mass in order to confirm the molecular formula.

[2] = Plasma binding of 5-MIAA (unbound fraction); assay type: in vitro ADME
Protocol: Binding to human plasma protein was determined. Reported are the unbound fraction (fu) for three replicates as well as the mean unbound fraction, the standard deviation and the mean % recovery (Table 8).

[3] = 5-MeO-DMT, 5-MIAA and bufotenine in urine, serum and breastmilk of a lactating PPD patient, LC-MS/MS
Protocol: The second patients was lactating, and, per the clinical trial protocol, breastmilk samples were collected pre-dosing and at multiple timepoints after administration of the last dose. […] Similar analyses were carried out on patient serum and urine samples.

[4] = Metabolic stability in Hμrel human hepatocyte co-culture model; conditions: human, Hμrel HumanPool primary human hepatocyte co-culture
[5] = tested on: human hepatocytes; assay: as above
[6] = Daily Infant Dosage (DID) and Relative Infant Dose (RID) calculated from breast milk concentrations; conditions: 5 kg infant, three 250 ml feeds
Description: When determining the potential impact of maternal drug administration on a breastfed infant, it is standard practice to calculate the Relative Infant Dose (RID) (Bennett, P. N., and L. J. Notarianni. “Risk from drugs in breast milk: an analysis by relative dose.” Br J Clin Pharmacol 42.5 (1996): P673-4). The RID is the dosage (in μg/kg/day) the infant is exposed to by the intake of breast milk, divided by the dosage (in μg/kg/day) the mother receives.
Using estimates for daily intake of breast milk and the number of feeds as well as the measured breast milk concentrations the exposure of the infant can be determined.
For example, a published estimate for daily intake of breast milk as a function of infant weight is 150 ml/kg/day. To model the exposure, it is assumed that an infant of 5 kg is fed three times over 24 hours, receiving 250 ml breast milk each time.
Since the amount actually delivered to the patient may be lower than the indicated dose, a calculation of the RID is also carried out assuming that the actually delivered amount is only 50% of the indicated dose so that any a potential underestimation of the infant exposure is avoided.

[7] = female, human, breast milk, inhaled

COc1ccc2[nH]cc(CC(=O)O)c2c1 [5-MIAA, 5-methoxyindole-3-acetic acid]
Relative Proportion of compound after incubation of 5-MeO-DMT [1]: about 60%
Relative Proportion of compound after incubation of 5-MeO-DMT ([1]; listed as 5-Methoxyindole acetic acid (5-MIAA)): 61%
recovery ([2]; human): 81.4%
fraction unbound ([2]; human plasma, read-out: plasma binding (mean fraction unbound)): ~0.5
fraction unbound ([2]; human, read-out: Mean fu): 0.502
fraction unbound ([2]; human, read-out: unbound fraction (fu), Replicate 1): 0.499
fraction unbound ([2]; human, read-out: unbound fraction (fu), Replicate 2): 0.462
fraction unbound ([2]; human, read-out: unbound fraction (fu), Replicate 3): 0.544
urine concentration relative to serum (times higher) ([3]; 2.5 hours): approx. 127 times
Breastmilk concentration ([3]; 120.0 hrs after last dose): BLQ (BLQ: Below limit of quantification. The lower limit of quantification is 25 pg/ml for both 5-MeO-DMT and 5-MIAA in both serum and breastmilk; it is 25 pg/ml in urine for 5-MeO-DMT and 250 pg/ml for 5-MIAA in urine.)
concentration at 2.5 h [3, 7]: 13.2 ng/mL
concentration at 8.5 h [3, 7]: 0.359 ng/mL
concentration at 2.5 h ([3]; female, human, urine, inhaled): 13000 ng/mL
Breastmilk concentration ([3]; −24.0 hrs (pre-dosing)): BLQ (BLQ: Below limit of quantification. The lower limit of quantification is 25 pg/ml for both 5-MeO-DMT and 5-MIAA in both serum and breastmilk; it is 25 pg/ml in urine for 5-MeO-DMT and 250 pg/ml for 5-MIAA in urine.)
half-life at 1 μM [4]: 10.7 days
hepatocyte CLint at 1 μM [4]: 0.15 µL/min/1e6 cells
relative LC/MS peak area ([5]; 1 μM Hepatocytes, 0 h): 100%
relative LC/MS peak area ([5]; 1 μM Hepatocytes, 1 h): 98%
relative LC/MS peak area ([5]; 1 μM Hepatocytes, 2 h): 100%
relative LC/MS peak area ([5]; 1 μM Hepatocytes, 4 h): 99%
relative LC/MS peak area ([5]; 1 μM Hepatocytes, 8 h): 95%
relative LC/MS peak area ([5]; 1 μM Hepatocytes, 24 h): 99%
relative LC/MS peak area ([5]; 1 μM Hepatocytes, 48 h): 88%
relative LC/MS peak area ([5]; 1 μM Hepatocytes, 72 h): 82%
relative LC/MS peak area ([5]; 1 μM Stromal cells, 0 h): 100%
relative LC/MS peak area ([5]; 1 μM Stromal cells, 4 h): 103%
relative LC/MS peak area ([5]; 1 μM Stromal cells, 8 h): 107%
relative LC/MS peak area ([5]; 1 μM Stromal cells, 24 h): 108%
relative LC/MS peak area ([5]; 1 μM Stromal cells, 48 h): 111%
relative LC/MS peak area ([5]; 1 μM Stromal cells, 72 h): 135%
relative LC/MS peak area ([5]; 10 μM Hepatocytes, 0 h): 100%
relative LC/MS peak area ([5]; 10 μM Hepatocytes, 1 h): 97%
relative LC/MS peak area ([5]; 10 μM Hepatocytes, 2 h): 100%
relative LC/MS peak area ([5]; 10 μM Hepatocytes, 4 h): 103%
relative LC/MS peak area ([5]; 10 μM Hepatocytes, 8 h): 96%
relative LC/MS peak area ([5]; 10 μM Hepatocytes, 24 h): 96%
relative LC/MS peak area ([5]; 10 μM Hepatocytes, 48 h): 86%
relative LC/MS peak area ([5]; 10 μM Hepatocytes, 72 h): 75%
relative LC/MS peak area ([5]; 10 μM Stromal cells, 0 h): 100%
relative LC/MS peak area ([5]; 10 μM Stromal cells, 4 h): 101%
relative LC/MS peak area ([5]; 10 μM Stromal cells, 8 h): 106%
relative LC/MS peak area ([5]; 10 μM Stromal cells, 24 h): 97%
relative LC/MS peak area ([5]; 10 μM Stromal cells, 48 h): 103%
relative LC/MS peak area ([5]; 10 μM Stromal cells, 72 h): 115%
metabolic turnover ([5]; human hepatocytes): low metabolic turnover
predicted hepatic extraction ratio ([5]; human, Hμrel HumanPool primary human hepatocyte co-culture): 2%
remaining abundance after 72 h ([5]; in the presence of hepatocytes, 1 and 10 μM): 75-82%
disappearance with stromal cell controls ([5]; stromal cell controls): no disappearance
Daily Infant Dosage (DID) of 5-MIAA [6]: 0.006886 mg/day
Daily Infant Dosage (DID) of 5-MIAA per kg [6]: 0.001377 mg/kg/day
